Each structure is given as a SMILES string.

The nature of this data set: Human HepG2 cell viability assay in 384 well format. Conditions: HepG2 cells, read-out: Inhibition. Also on record: dose 125 nL, time 70.5 hour; concentration not given beside the values. It is filed as toxicity, cell-based.
For `O=C(CC1CCCN1S(=O)(=O)N1CCCCC1)c1cccs1` (stereo not given), the cytotoxicity at 70.5 h was -3.32%.

Consider `CSC(CNS(=O)(=O)c1cnn(C)c1)c1cccc(Cl)c1` (stereo not given), for which the cytotoxicity at 70.5 h was -6.72%.

With `Cc1ccc(NC2CCN(C(=O)c3cscn3)CC2)nn1`, the cytotoxicity at 70.5 h was found to be 0.539%.

For `Cn1cc(CN2CCOC(c3nccnc3-c3cccc(F)c3)C2)cn1` (stereo not given), the cytotoxicity at 70.5 h came out at 21.8%.

`NC(=O)CN1CCCN(C(=O)c2ccc(SC(F)F)cc2)CC1`: the cytotoxicity at 70.5 h was -6.46%.

As for `CN(Cc1ccc(-n2cccn2)cc1)c1nc(N)nc2c1CCNCC2`, the cytotoxicity at 70.5 h is 12.6%.

As to `Cn1cc(-c2ccnc(NCC3CCN(Cc4ccccc4)C3)n2)cn1` (stereo not given), the cytotoxicity at 70.5 h was determined as 11.9%.

In the case of `Cc1nccn1-c1cncc(C2CCCN2Cc2cccnc2)n1` (stereo not given), the cytotoxicity at 70.5 h turned out to be 19.3%.

Consider `CN1CC(=O)N(c2ccccc2)CC12CCN(C(=O)c1cccs1)C2` (stereo not given), for which the cytotoxicity at 70.5 h was -5.55%.

On to `CN(CC(=O)N1CCCC1)C(=O)c1ccccc1F`, for which the cytotoxicity at 70.5 h is -13.9%.

As for `NS(=O)(=O)CCCNC(=O)C1(c2cccc(Cl)c2)CC1`, the cytotoxicity at 70.5 h was -22.9%.

`Cc1cc(C)n(CCC(=O)N2CCCC(n3nc(C)nc3C)C2)n1` (stereo not given): the cytotoxicity at 70.5 h was -6.97%.

Take `Cc1nnc2ccc(OCCNS(=O)(=O)c3cccs3)nn12`: the cytotoxicity at 70.5 h was -9.99%.

Consider `O=C(Cc1ccsc1)N1C[C@@H]2OCCN(CC3CC3)[C@@H]2C1`, for which the cytotoxicity at 70.5 h was determined as 1.39%.

Take `COCC(NC(=O)c1cc(C)n(C)n1)c1cccc(C(F)(F)F)c1` (stereo not given): the cytotoxicity at 70.5 h worked out at 4.67%.

Turning to `CCSc1cc(C(=O)NCCC(=O)N(C)C)ccn1`, the cytotoxicity at 70.5 h was -103%.

Take `Cc1nc(NC2CCN(S(=O)(=O)c3ccccc3)CC2)[nH]c(=O)c1C`: the cytotoxicity at 70.5 h is -9.46%.

For `COc1ccccc1Oc1ncccc1CNC(=O)[C@H](N)CC(C)(C)C`, the cytotoxicity at 70.5 h is -5.62%.

With `COc1ccc(SC(C)C(=O)N2CCC(O)CC2)cc1` (stereo not given), the cytotoxicity at 70.5 h is -4.3%.

For the molecule `CN(C)CCCNC(=O)c1nnsc1-c1ccccc1`, the cytotoxicity at 70.5 h is -8.68%.

Take `CN1CCCc2c1nc1c(c2N)CCC1`: the cytotoxicity at 70.5 h was -7.63%.

As for `Cc1n[nH]c(C2CN(C(=O)c3coc(Br)c3)CCO2)n1` (stereo not given), the cytotoxicity at 70.5 h is -10.2%.

As for `FC(F)(F)c1cccc(CN2CCOC[C@H](Oc3cccnc3)C2)c1`, the cytotoxicity at 70.5 h is -1.63%.

For `CC(C)Cc1cc(C(=O)NC(C)(C)CN2CCCCCC2)on1`, the cytotoxicity at 70.5 h was -4.52%.

As to `COc1ccccc1CN1CCC2(CCC(C(=O)N(C)C)O2)CC1` (stereo not given), the cytotoxicity at 70.5 h was -8.03%.

For `NC(=O)CN1C(=O)CO[C@H]2CN(Cc3ccc(F)c(F)c3)C[C@H]21`, the cytotoxicity at 70.5 h is -3.9%.

`Cc1nc(C2CCCN(C(=O)c3c[nH]c(C(C)C)n3)C2)no1` (stereo not given): the cytotoxicity at 70.5 h is -2.72%.

As for `Cc1cccc(OCCCN2CCC(N(C)Cc3noc(C)n3)C2)c1` (stereo not given), the cytotoxicity at 70.5 h was found to be 25.5%.

Turning to `CC(C)c1ncc(CN2CCCC2c2[nH]ncc2C(=O)N(C)C)cn1` (stereo not given), the cytotoxicity at 70.5 h was -5.06%.

As for `O=C(CNC(=O)N1CCc2c([nH]c3ccc(Cl)cc23)C1)N1CCOCC1`, the cytotoxicity at 70.5 h came out at 37.5%.

Consider `COc1ccc(CCn2cnnc2[S+](C)[O-])cc1` (stereo not given), for which the cytotoxicity at 70.5 h is -10%.

As to `COCCN1CCN(Cc2cccc(C(=O)N(C)C)c2)CC1`, the cytotoxicity at 70.5 h is -4.26%.

As for `CN(Cc1cnn(C)c1)C(=O)CCc1ccc2c(c1)OCO2`, the cytotoxicity at 70.5 h was -58.4%.

For the molecule `Cc1cc(-c2cccc3c2CCNC3)cnc1-n1cnnc1`, the cytotoxicity at 70.5 h is -5.08%.

For the molecule `CCCc1cc(C(=O)NC(COC)c2ccnn2C)no1` (stereo not given), the cytotoxicity at 70.5 h is 14.9%.

Turning to `COC(=O)N1CCCN(C(=O)NC2CCc3ccccc3C2)CC1` (stereo not given), the cytotoxicity at 70.5 h is -1.7%.

With `CCC(CC)c1cc(CNC(=O)N2CCC(CO)CC2)on1`, the cytotoxicity at 70.5 h is -4.82%.

With `Cc1cccc(C(=O)N2CCO[C@H]3[C@H](OCCN(C)C)CC[C@@H]32)n1`, the cytotoxicity at 70.5 h was -3.76%.

Consider `Cc1ccc(C#N)cc1NC(=O)NC1CCCN(c2ncccn2)C1` (stereo not given), for which the cytotoxicity at 70.5 h is -0.699%.

On to `Fc1ccc(OCCCN2CCOC(Cn3cncn3)C2)cc1` (stereo not given), for which the cytotoxicity at 70.5 h was -5.61%.

In the case of `O=C(NCCc1cccnc1)C1CCCN(Cc2ccco2)C1` (stereo not given), the cytotoxicity at 70.5 h worked out at 16.1%.

Turning to `Cc1nc(Nc2nnc(C)s2)cc(C2CCCN2C)n1` (stereo not given), the cytotoxicity at 70.5 h was found to be 7.92%.

Consider `COCc1cc(N(CC(F)F)C2CC2)n2ncnc2n1`, for which the cytotoxicity at 70.5 h was -5.91%.

As for `CN(C)CCNc1ncccc1CNC(=O)Nc1cc(F)cc(F)c1`, the cytotoxicity at 70.5 h is -12%.

For the molecule `O=C(c1cccc(Cn2ccnc2)c1)N1CCCC(n2ccnc2)C1` (stereo not given), the cytotoxicity at 70.5 h is -16.1%.

As for `Cc1nnc2n1CCN(C(=O)c1ccc(Cn3cccc3)cc1)C2`, the cytotoxicity at 70.5 h is -7.82%.

Turning to `CC(c1cccc(Cl)c1)N(C)CCS(=O)(=O)CCC(N)=O` (stereo not given), the cytotoxicity at 70.5 h is -0.172%.

As to `COCCN1CCN(CC(=O)N(C)Cc2ccc(F)cc2)CC1C` (stereo not given), the cytotoxicity at 70.5 h was 23.3%.

For `COCc1ccc(C(=O)N2CCN(CC(C)O)CC2)cc1` (stereo not given), the cytotoxicity at 70.5 h was -3.37%.

With `Cc1ncsc1CN1C[C@@H]2CN(Cc3cccnc3)CCO[C@@H]2C1`, the cytotoxicity at 70.5 h was -5.27%.

As to `COc1ccc(OC2CCN(c3ccncc3)CC2)cc1`, the cytotoxicity at 70.5 h was -3.12%.

For `Cc1n[nH]c(C)c1CCNC(=O)Nc1ccc2c(c1)COC2`, the cytotoxicity at 70.5 h is -19%.

Take `COc1ccnc(CNc2cc(C3CC3)ncn2)c1`: the cytotoxicity at 70.5 h was -11.7%.

As to `NC(=O)c1ccc(CN2CCCC(O)C2)cc1` (stereo not given), the cytotoxicity at 70.5 h is -3.47%.

With `CCN1CCCC(CN2CCn3nc(CNC(=O)N(C)C)cc3C2)C1` (stereo not given), the cytotoxicity at 70.5 h was -8.51%.

As for `Cc1cccc(CN2CCC(NS(C)(=O)=O)CC2)n1`, the cytotoxicity at 70.5 h was -8.65%.

As to `O=C1CCC(=O)N1c1nn(Cc2ccccc2Cl)cc1Cl`, the cytotoxicity at 70.5 h was -0.484%.

Consider `Cc1csc(CN2CCn3c(COc4cccnc4)cnc3C2C)n1` (stereo not given), for which the cytotoxicity at 70.5 h is -9.58%.

Take `O=C(NCCc1cccs1)[C@H]1CO[C@H]2CCNC[C@H]2C1`: the cytotoxicity at 70.5 h was -15%.

Regarding `COCC(=O)N1CC2(CCN(c3ccccc3)C2)C1`, the cytotoxicity at 70.5 h is -5.97%.

As to `Cc1csc(CCNC(=O)NC(C)Cn2cccn2)n1` (stereo not given), the cytotoxicity at 70.5 h amounted to 19%.

Take `CC(C)CN(CCc1ccccc1)Cc1nc2c(cnn2C)c(=O)[nH]1`: the cytotoxicity at 70.5 h is -3.12%.

`Cc1nn(C)c(Oc2cccc(F)c2)c1NC(=O)C1CCCO1` (stereo not given): the cytotoxicity at 70.5 h was -6.09%.

On to `CC(=O)N1CCC2(CCN(C(=O)c3ccc(F)c(C(F)(F)F)c3)CC2)C1`, for which the cytotoxicity at 70.5 h is -6.93%.

As to `Cc1cccc2cc(C(=O)N3CCN(S(=O)(=O)N(C)C)CC3)n(C)c12`, the cytotoxicity at 70.5 h was determined as 1.01%.

Consider `CN(Cc1cccs1)C(=O)c1ccc(N2CCOCC2)c(F)c1`, for which the cytotoxicity at 70.5 h was determined as 12.4%.

Take `CN(CC1CN(Cc2cn3ccsc3n2)CCO1)c1cccnn1` (stereo not given): the cytotoxicity at 70.5 h is -2.29%.

With `Cc1cc(C)c(CNC(=O)NCc2nnc3n2CCC3)c(=O)[nH]1`, the cytotoxicity at 70.5 h turned out to be 14.7%.

Consider `COCCN1C(=O)[C@H]2CC[C@@H]1CN(C(=O)COc1ccc(F)c(Cl)c1)C2`, for which the cytotoxicity at 70.5 h is -9.65%.

Consider `CCCN1CCC(N2CCN(c3cc(C)nc(C)c3)CC2)CC1`, for which the cytotoxicity at 70.5 h is 5.6%.

In the case of `CCCc1ccc(CN2CCC3(CCC(=O)N(C(C)C(=O)O)C3)CC2)o1` (stereo not given), the cytotoxicity at 70.5 h was -4.9%.

On to `Cn1cc(N2CCC3(CCN(C(=O)[C@H]4CCCO4)C3)C2=O)cn1` (stereo not given in full), for which the cytotoxicity at 70.5 h was -7.22%.

On to `CN1CC2(CCN(c3ncnc4c3CCNC4)CC2)OC1=O`, for which the cytotoxicity at 70.5 h was -9.3%.

On to `N#Cc1ccc(OC[C@]23COC[C@H]2CN(Cc2ccoc2)C3)nc1`, for which the cytotoxicity at 70.5 h was 0.658%.

For the molecule `CN(C)C1CCC2(CCN(Cc3cccnc3)CC2)c2ccccc21` (stereo not given), the cytotoxicity at 70.5 h is -3.39%.

In the case of `Cc1cccc(C(=O)N2CCN(c3ccccc3F)CC2)n1`, the cytotoxicity at 70.5 h is -7.27%.

For the molecule `CC(C)(C)C(=O)N1CCCN(c2ncnc3nc(N)ccc23)CC1`, the cytotoxicity at 70.5 h was -1.35%.

In the case of `CCOc1ccc(CN(C)C(=O)COc2ccc(C)nc2)cc1`, the cytotoxicity at 70.5 h was -8.96%.

As to `Cc1cccc2c1nc1n2[C@@H](CNC(=O)C2CCOCC2)COC1`, the cytotoxicity at 70.5 h is -4.19%.

Take `Cc1ccc(C)c(-c2[nH]c3ccccc3c2C(=O)O)c1`: the cytotoxicity at 70.5 h was -12.7%.

Consider `CC(C)c1nc(C2CCCN2c2cnc3ccccc3n2)no1` (stereo not given), for which the cytotoxicity at 70.5 h was -6.53%.

As to `Cc1nccc(C2CN(S(=O)(=O)N(C)C)C2)n1`, the cytotoxicity at 70.5 h was -1.63%.

In the case of `COCc1cnc2n1CCN(C(=O)c1ccc3ccccc3n1)C2C` (stereo not given), the cytotoxicity at 70.5 h is -8.35%.

For `CC(C)NC(=O)c1nnn(-c2cccc(C(F)(F)F)c2)c1C1CC1`, the cytotoxicity at 70.5 h is 10.4%.

`N#Cc1cnc(NCc2cccc(C(=O)N3CCCC3)c2)c(Cl)c1`: the cytotoxicity at 70.5 h was -1.9%.

`O=C(CC1NC(N2CCc3ccccc32)=NC1=O)Nc1ccccc1` (stereo not given): the cytotoxicity at 70.5 h was -5.06%.

On to `CNC(=O)Cn1c(-c2ccco2)nn(-c2ccccc2OC)c1=O`, for which the cytotoxicity at 70.5 h amounted to 9.58%.

Turning to `COCC1CCCN(CCCc2cccc(OC)c2)C1` (stereo not given), the cytotoxicity at 70.5 h was 37.4%.

As to `COc1cc(C(C)=O)ccc1OCC(=O)c1cccn1C`, the cytotoxicity at 70.5 h came to 32.2%.

Take `CN(CC(=O)NCc1ccco1)Cc1nc2c(s1)CCCC2`: the cytotoxicity at 70.5 h turned out to be 4%.

For the molecule `Cc1cc(C)c(CNC(=O)N2CCCC2c2cc(C)on2)c(=O)[nH]1` (stereo not given), the cytotoxicity at 70.5 h was -7.12%.

Consider `O=C(NCCCc1nc(=O)[nH][nH]1)Nc1ccc(Cl)cc1`, for which the cytotoxicity at 70.5 h was -13.5%.

For `CN(CCc1ccccc1)c1cnn(CC2COCCO2)c(=O)c1` (stereo not given), the cytotoxicity at 70.5 h is -4.1%.

For `Cc1cc(O)n(-c2ccccc2Cl)c(=O)c1C#N`, the cytotoxicity at 70.5 h is -0.226%.

For the molecule `O=C(Nc1cccnc1)NC(CCCO)c1ccccc1` (stereo not given), the cytotoxicity at 70.5 h was -16%.

`O=C(CSc1nncs1)N1CCN(Cc2ccc(Cl)cc2)CC1`: the cytotoxicity at 70.5 h is 1.53%.

Take `NC(c1ccc(Cl)cc1)c1cccs1` (stereo not given): the cytotoxicity at 70.5 h amounted to 9.24%.

As for `CCOCC(=O)N1CCC(c2nc(-c3cccnn3)no2)CC1`, the cytotoxicity at 70.5 h was -11.6%.

With `CN1CC(C(=O)NCCOc2ccc3c(c2)OCO3)CC1=O` (stereo not given), the cytotoxicity at 70.5 h was -1.1%.

On to `O=C(Cc1ccccn1)N1C[C@H](OCc2cccnc2)[C@H]2COC[C@H]21`, for which the cytotoxicity at 70.5 h was determined as 0.247%.

The record behind these values is ChEMBL document CHEMBL3507680, “University of Dundee, Gates Library screen for HepG2 cell viability”.
